Laboratory results taken from patent US11623869B2 (UNIVERSIDADE ESTADUAL DE CAMPINAS—UNICAMP, priority 2017, dated 2023).

System: non-muscle invasive bladder cancer (CBNMI)
Assay: Adjuvancy of intravesical MRB-CFI-1 and systemic cisplatin in NMIBC rats, histopathology
Format: in vivo, Fischer 344 female rats
Excerpt: The protocol for use of animals in research was approved by the Ethics Committee on the Use of Animals (CEUA)—UNICAMP (protocol number: 4324-1).

[1] = MNU rats, MRB-CFI-1 intravesical 20 mg/kg 6 weeks and/or cisplatin i.p. […] weekly 4 weeks, n = 7

For N.N.[Cl][Pt][Cl] [cisplatin], the “decrease in the progression of urothelial neoplastic lesions, percentage of animals” value (MNU rats, same treatments) was 14.28%, the “Carcinoma in situ (Ptis), percentage of animals” value [1] was 14.28% and the “Papillary carcinoma (pTa), percentage of animals” value [1] was 57.14%. For the same compound, the “Papilliferous hyperplasia, percentage of animals” value [1] was 14.28%, the “Urothelial carcinoma with lamina propria invasion (pT1), percentage of animals” value [1] was 14.28% and the “Carcinoma in situ (Ptis), number of animals” value (same treatments, of n = 7) was 1. For the same compound, the “Papillary carcinoma (pTa), number of animals” value (same treatments, of n = 7) was 4, the “Papilliferous hyperplasia, number of animals” value (same treatments, of n = 7) was 1 and the “Urothelial carcinoma with lamina propria invasion (pT1), number of animals” value (same treatments, of n = 7) was 1.
